Patent US6814960B1, “Hydroxystilbene compounds used as microbicidal active substances” (Ciba Specialty Chemicals Corporation, priority 1998, dated 2004)

Legend:
Assay in all cases: MIC value in microtitre plates (optical density)
Type in all cases: cell-based
[1] = system: Aspergillus niger ATCC 6275; details: microtitre plate, Sabouraud 2% glucose bouillon, 5 days at 28° C., optical density 620 nm, ≦20% growth; some data indicative values
Protocol: (§1) Determination of the Minimum Inhibiting Concentration (MIC Value) in Microtitre Plates
(§2) Casein/soybean flour peptone bouillon for the preparation of the precultures of the test bacteria and yeast.
(§3) Mycological slant agar for the preculture of moulds.
(§4) Examples of Test Organisms
(§5) The test substances are predissolved in dimethyl sulfoxide (DMSO) and tested in a serial dilution of 1:2.
(§6) Bacteria and yeast are cultured overnight in CASO bouillon, the mould on mycological slant agar and rinsed off with 10 ml of 0.85% sodium chloride solution (+0.1% TritonX-100).
(§7) All test organisms are adjusted to an organism count of 1.5×10^6 CFU/ml with 0.85% sodium chloride solution.
(§8) The test substances are prepipetted into microtitre plates in an amount of 8 μl per well.
(§9) Previously diluted organism substances are diluted 1:100 in CASO bouillon (bacteria and yeast) and Sabouraud 2% glucose bouillon (mould) and added to the test substances in an amount of 192 μl per well.
(§10) The test batches are incubated for 48 hours at 37° C. (bacteria and yeast) or for 5 days at 28° C. (mould).
(§11) After incubation, the growth is determined by reference to the turbidity of the test batches (optical density) at 620 nm in a microplate reader.
(§12) The minimum inhibiting concentration (MIC value) is the concentration of substance at which (compared with the growth control) an appreciable inhibition of the growth (≦20% growth) of the test organisms is ascertained.
(§13) One microtiter plate is used for each test organism and substance concentration. All substances tested in duplicate.

[2] = system: Candida albicans ATCC 10231; details: microtitre plate, CASO bouillon, 48 hours at 37° C., optical density 620 nm, ≦20% growth; some data indicative values
Protocol: as §1, §2, §3, §4, §5, §6, §7, §8, §9, §10, §11, §12, §13

[3] = system: Pseudomonas aeruginosa CIP A-22; details: microtitre plate, CASO bouillon, 48 hours at 37° C., optical density 620 nm, ≦20% growth; some data indicative values
Protocol: as §1, §2, §3, §4, §5, §6, §7, §8, §9, §10, §11, §12, §13

[4] = system: Staphylococcus hominis DSM 20328; details: microtitre plate, CASO bouillon, 48 hours at 37° C., optical density 620 nm, ≦20% growth; some data indicative values
Protocol: as §1, §2, §3, §4, §5, §6, §7, §8, §9, §10, §11, §12, §13

[5] = system: Escherichia coli NCTC 8196; details: microtitre plate, CASO bouillon, 48 hours at 37° C., optical density 620 nm, ≦20% growth; some data indicative values
Protocol: as §1, §2, §3, §4, §5, §6, §7, §8, §9, §10, §11, §12, §13

| Compound | MIC values A. niger [1] [ppm] | MIC values C. albicans [2] [ppm] | MIC values P. aeruginosa [3] [ppm] | MIC values S. heminis [4] [ppm] | MIC values E. coli [5] [ppm] |
| --- | --- | --- | --- | --- | --- |
| CCOc1cc(/C=C/c2ccccc2C)ccc1O [Comp. of formula 171] | >100 | >100 | >100 | >100 | >100 |
| COc1cc(/C=C/c2ccccc2C)ccc1O [Comp. of formula 172] | >100 | 10 | >100 | >100 | >100 |
| COc1ccc(/C=C/c2ccccc2)cc1O [Comp. of formula 109] | 100 | >100 | >100 | >100 | >100 |
| COc1ccc(/C=C/c2ccc(OC)c(O)c2)cc1 [Comp. of formula 133] | >100 | >100 | >100 | >100 | >100 |
| Cc1ccc(/C=C/c2cccc(O)c2)cc1 [Comp. of formula 181] | 30 | 15 | 100 | 15 | 15 |
| Oc1ccccc1/C=C/c1ccc(-c2ccccc2)cc1 [Comp. of formula 150] | >100 | >100 | >100 | >100 | >100 |
| CCOc1cc(/C=C/c2cccc3ccccc23)ccc1O [Comp. of formula 159] | 100 | >100 | >100 | >100 | >100 |
| COc1ccc(/C=C/c2ccc(O)c(OC)c2)cc1 [Comp. of formula 135] | >100 | >100 | >100 | >100 | >100 |
| COc1ccc(/C=C/c2cccc(C)c2O)cc1 [Comp. of formula 140] | 100 | >100 | >100 | >100 | >100 |
| Oc1ccc(/C=C/c2cccc3ccccc23)cc1 [Comp. of formula 156] | 30 | 15 | >100 | 7.5 | 60 |
| COc1ccc(/C=C/c2cccc(O)c2)cc1 [Comp. of formula 132] | >100 | >100 | >100 | >100 | >100 |
| COc1ccc(/C=C/c2ccc(C)cc2)cc1O [Comp. of formula 182] | >100 | >100 | >100 | >100 | >100 |
| COc1cc(/C=C/c2cccc3ccccc23)ccc1O [Comp. of formula 160] | 100 | >100 | >100 | >100 | >100 |
| COc1cc(/C=C/c2cccc3ccccc23)cc(O)c1OC [Comp. of formula 163] | 100 | >100 | >100 | >100 | >100 |
| Cc1cccc(/C=C/c2ccccc2)c1O [Comp. of formula 116] | 60 | 60 | 100 | 60 | 60 |
| Cc1cccc(/C=C/c2ccc(Cl)cc2)c1O [Comp. of formula 128] | 100 | >100 | >100 | >100 | >100 |
| COc1ccc(/C=C/c2ccc(O)cc2)cc1 [Comp. of formula 131] | >100 | >100 | >100 | >100 | >100 |
| COc1cc(/C=C/c2ccccc2)ccc1O [Comp. of formula 111] | 100 | >100 | >100 | >100 | >100 |
| Oc1ccccc1/C=C/c1cccc2ccccc12 [Comp. of formula 162] | 15 | 30 | >100 | 7.5 | 30 |
| COc1cc(/C=C/c2ccc(-c3ccccc3)cc2)ccc1O [Comp. of formula 148] | >100 | >100 | >100 | >100 | >100 |
| Cc1cccc(/C=C/c2ccc(-c3ccccc3)cc2)c1O [Comp. of formula 153] | >100 | >100 | >100 | >100 | >100 |
| Oc1cccc(/C=C/c2cccc3ccccc23)c1 [Comp. of formula 157] | 60 | 15 | >100 | 7.5 | 15 |
| COc1ccc(/C=C/c2ccc(Cl)cc2)cc1O [Comp. of formula 121] | >100 | >100 | >100 | >100 | >100 |
| CCOc1cc(/C=C/c2ccc(OC)cc2)ccc1O [Comp. of formula 134] | >100 | >100 | >100 | >100 | >100 |
| Oc1cccc(/C=C/c2ccc(-c3ccccc3)cc2)c1 [Comp. of formula 145] | >100 | >100 | >100 | >100 | >100 |
| Oc1ccc(/C=C/c2ccc(-c3ccccc3)cc2)cc1 [Comp. of formula 143] | >100 | >100 | >100 | >100 | >100 |
